In patent US20250179059A1 (The Regents of the University of California, priority 2021, published 2025) one finds GI50 and IC50 data, which are given here for 25 compounds.

Experiment [1] deals with human SKM-1 acute myeloid leukemia cells. In words: SKM-1 antiproliferation cell-based assay (ATPlite). The procedure, abridged: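 Log-phase cells in RPMI 1640/15% FBS were seeded at 34722 cells/mL and exposed for 4 days to nine-concentration DMSO serial dilutions in triplicate. Viability was read as ATP luminescence (ATPlite 1step), and IC50 values came from variable-slope non-linear regression.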
On the technique in general: Cellular ATP, detected with luciferase, serves as a proxy for viable cell number.

In experiment [2] the target is T1, human BRD4 bromodomain II (Homo sapiens, UniProt O60885).
T1 construct: human BRD4 bromodomain II [based on Genbank NM_058243, residues 349-460]; host or cells: E. coli
Briefly: Bromodomain binding assay (AlphaScreen), BRD4 BDII. In a few lines: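 Inhibition of acetyl-H4 peptide binding to human BRD4 bromodomains is measured by bead-based proximity (AlphaScreen) in pH 7.5 HEPES buffer containing 0.05% CHAPS and 0.1% BSA. Ten compound concentrations in 3-fold steps give competitive binding IC50s.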
(Bead proximity is the source of the signal in Alpha formats.)

The mark [3] stands for this setting: Homo sapiens, SKM-1, 96 h, SKM-1 antiproliferation assay, 4 days, Table C2.
The mark [4] stands for this setting: AlphaScreen assay, Table C2, read-out: BRD4 BDII IC50.
[5] abbreviates: Homo sapiens, SKM-1, SKM-1 antiproliferation assay.
Setting [6] is: BRD4 BDII AlphaScreen assay, read-out: BRD4 BD2 IC50.

Where two headings read alike, the source gives them in different places.

One may read the GI50 as the concentration giving 50% growth inhibition. Read a low GI50 as greater sensitivity of the cells. In general, IC50 refers to the concentration at which inhibition is half-maximal. In experiment [1] (setting [3]), `C[C@@H]1CN(c2cc(-c3cc(F)cc(-c4ccc(-n5ccn(C)c5=O)c(F)c4)c3O)ccn2)CCN1` [Example 534, (R)-1-(3,5′-difluoro-2′-hydroxy-3′-(2-(3-methylpiperazin-1-yl)pyridin-4-yl)-[1,1′-biphenyl]-4-yl)-3-methyl-1H-imidazol-2(3H)-one] gave a GI50 of 0.3 to 30 nM. For the same compound, the IC50 in experiment [2] (setting [4]) fell in the range of 1 to 10 nM.
In the case of `Cn1ccn(-c2ccc(-c3cc(F)cc(-c4ccnc(N5C[C@H](O)[C@@H](F)C5)c4)c3O)cc2Cl)c1=O` [Example 786, 1-(3-chloro-5′-fluoro-3′-(2-((3S,4S)-3-fluoro-4-hydroxypyrrolidin-1-yl)pyridin-4-yl)-2′-hydroxy-[1,1′-biphenyl]-4-yl)-3-methyl-1H-imidazol-2(3H)-one], the GI50 in experiment [1] (setting [3]) lay in the range of 30 to 300 nM. Further, in experiment [2] (setting [4]), the IC50 lay within 1 to 10 nM.
`Cn1ccn(-c2ccc(-c3cc(F)cc(-c4cncc(N5CC[C@](C)(O)C5)c4)c3O)cc2Cl)c1=O` [Example 729, (S)-1-(3-chloro-5′-fluoro-2′-hydroxy-3′-(5-(3-hydroxy-3-methylpyrrolidin-1-yl)pyridin-3-yl)-[1,1′-biphenyl]-4-yl)-3-methyl-1H-imidazol-2(3H)-one]: the GI50 in experiment [1] (setting [3]) lay in the range of 0.3 to 30 nM. Further, the IC50 in experiment [2] (setting [4]) was 0.01 to 1 nM.
On to `Cc1ncc(-c2cc(F)cc(-c3ccc(-n4ccn(C)c4=O)c(Cl)c3)c2O)cc1N1CC(C)(O)C1` [Example 843, 1-(3-chloro-5′-fluoro-2′-hydroxy-3′-(5-(3-hydroxy-3-methylazetidin-1-yl)-6-methylpyridin-3-yl)-[1,1′-biphenyl]-4-yl)-3-methyl-1H-imidazol-2(3H)-one], for which the GI50 in experiment [1] (setting [3]) lay in the range of 0.3 to 30 nM. In addition, the IC50 in experiment [2] (setting [4]) was in the range of 0.01 to 1 nM.
In experiment [1] (setting [3]), `Cn1ccn(-c2ccc(-c3cc(F)cc(-c4ccnc(N5CCC[C@@H](O)C5)c4)c3O)cc2Cl)c1=O` [Example 622, (R)-1-(3-chloro-5′-fluoro-2′-hydroxy-3′-(2-(3-hydroxypiperidin-1-yl)pyridin-4-yl)-[1,1′-biphenyl]-4-yl)-3-methyl-1H-imidazol-2(3H)-one] displayed a GI50 of 30 to 300 nM. Moreover, the IC50 in experiment [2] (setting [4]) was 1 to 10 nM.
The compound `COc1ncc(-c2nc(C)cc(-c3ccc(-n4ccn(C)c4=O)c(Cl)c3)c2O)cc1N1CCC2(CCN2C(C)C)C1` (centres unmarked) [Example 977, 1-(2-chloro-4-(3-hydroxy-5′-(1-isopropyl-1,6-diazaspiro[3.4]octan-6-yl)-6′-methoxy-6-methyl-[2,3′-bipyridin]-4-yl)phenyl)-3-methyl-1H-imidazol-2(3H)-one] gave a GI50 in experiment [1] (setting [5]) of 0.3 to 30 nM. Also, the half-maximal inhibitory concentration (IC50) in experiment [2] (setting [6]) fell in the range of 0.01 to 1 nM.
`Cn1ccn(-c2ccc(-c3cc(F)cc(-c4ccnc(N5CC6(CC6)[C@](C)(O)C5)c4)c3O)cc2Cl)c1=O` [Example 815]: in experiment [1] (setting [3]), the GI50 lay within 0.3 to 30 nM. The IC50 in experiment [2] (setting [4]) fell in the range of 0.01 to 1 nM.
The like results for `C[C@@H]1CN(c2cc(-c3cc(F)cc(-c4ccc(N5CCN(C)C5=O)c(Cl)c4)c3O)cn(C)c2=O)CCN1` [Example 377, (R)-5-(3′-chloro-5-fluoro-2-hydroxy-4′-(3-methyl-2-oxoimidazolidin-1-yl)-[1,1′-biphenyl]-3-yl)-1-methyl-3-(3-methylpiperazin-1-yl)pyridin-2(1H)-one] were, in that order, 30 to 300 nM and 1 to 10 nM.
For the compound `Cc1cccn(-c2ccc(-c3cc(F)cc(-c4ccnc(N5CCNCC5)c4)c3O)cc2Cl)c1=O` [Example 496, 1-(3-chloro-5′-fluoro-2′-hydroxy-3′-(2-(piperazin-1-yl)pyridin-4-yl)-[1,1′-biphenyl]-4-yl)-^3-methylpyridin-2(1H)-one], in experiment [1] (setting [3]), the GI50 was ≥ 3000 nM. Moreover, the IC50 in experiment [2] (setting [4]) was > 100 nM.
Consider `Cc1cc(-c2cc(F)cc(-c3cccc(N4CCN(C(C)(C)C)CC4)c3)c2O)ccc1-n1ccn(C)c1=O` [Example 949, 1-(3″-(4-(tert-butyl)piperazin-1-yl)-5′-fluoro-2′-hydroxy-3-methyl-[1,1′:3′,1″-terphenyl]-4-yl)-3-methyl-1,3-dihydro-2H-imidazol-2-one], for which the GI50 in experiment [1] (setting [5]) lay in the range of 0.3 to 30 nM. Besides, the IC50 in experiment [2] (setting [6]) lay within 1 to 10 nM.
The compound `Cn1ccn(-c2ccc(-c3cc(F)cc(-c4ccnc(N5CCC(O)(CO)C5)c4)c3O)cc2Cl)c1=O` (centres unmarked) [Example 731, 1-(3-chloro-5′-fluoro-2′-hydroxy-3′-(2-(3-hydroxy-3-(hydroxymethyl)pyrrolidin-1-yl)pyridin-4-yl)-[1,1′-biphenyl]-4-yl)-3-methyl-1H-imidazol-2(3H)-one] yielded a GI50 in experiment [1] (setting [3]) of 0.3 to 30 nM. Further, in experiment [2] (setting [4]), the IC50 fell in the range of 0.01 to 1 nM.
Compound `Cn1ccn(-c2ccc(-c3cc(F)cc(-c4ccnc(N5CCNCCC5=O)c4)c3O)cc2Cl)c1=O` [Example 665, 4-(4-(3′-chloro-5-fluoro-2-hydroxy-4′-(3-methyl-2-oxo-2,3-dihydro-1H-imidazol-1-yl)-[1,1′-biphenyl]-3-yl)pyridin-2-yl)-1,4-diazepan-5-one] gave a GI50 in experiment [1] (setting [3]) of 30 to 300 nM. Besides, the IC50 in experiment [2] (setting [4]) lay in the range of 0.01 to 1 nM.
As to `Cn1ccn(-c2ccc(-c3cc(F)cc(-c4cc(Cl)c(F)c(N5CCN(C(C)(C)C)CC5)c4)c3O)cc2Cl)c1=O` [Example 904], the GI50 in experiment [1] (setting [5]) fell in the range of 30 to 300 nM. Also, in experiment [2] (setting [6]), the IC50 was in the range of 0.01 to 1 nM.
Compound `Cn1ccn(-c2ccc(-c3cc(F)cc(-c4cnnc(N5CC[C@@](C)(O)C5)c4)c3O)cc2Cl)c1=O` [Example 832, (R)-1-(3-chloro-5′-fluoro-2′-hydroxy-3′-(6-(3-hydroxy-3-methylpyrrolidin-1-yl)pyridazin-4-yl)-[1,1′-biphenyl]-4-yl)-3-methyl-1H-imidazol-2(3H)-one] showed a GI50 in experiment [1] (setting [3]) of 0.3 to 30 nM. In experiment [2] (setting [4]), the IC50 lay within 0.01 to 1 nM.
As for `CC[C@]1(O)CCN(c2cc(-c3cc(F)cc(-c4ccc(-n5ccn(C)c5=O)c(Cl)c4)c3O)ccn2)C1` [Example 819, (S)-1-(3-chloro-3′-(2-(3-ethyl-3-hydroxypyrrolidin-1-yl)pyridin-4-yl)-5′-fluoro-2′-hydroxy-[1,1′-biphenyl]-4-yl)-3-methyl-1H-imidazol-2(3H)-one], in experiment [1] (setting [3]), the GI50 lay in the range of 30 to 300 nM. Moreover, the IC50 in experiment [2] (setting [4]) was 1 to 10 nM.
For the compound `COc1ncc(-c2cc(F)cc(-c3ccc(-n4ccn(C)c4=O)c(Cl)c3)c2OC(C)=O)cc1N1CCN(C(C)C)CC1` [Example 860], in experiment [1] (setting [5]), the GI50 lay within 0.3 to 30 nM. Besides, the IC50 in experiment [2] (setting [6]) was > 100 nM.
Regarding `Cn1ccn(-c2ccc(-c3cc(F)cc(-c4ccnc(N5CCC6(CCN6)C5)c4)c3O)cc2Cl)c1=O` (centres unmarked) [Example 641, 1-(3′-(2-(1,6-diazaspiro[3.4]octan-6-yl)pyridin-4-yl)-3-chloro-5′-fluoro-2′-hydroxy-[1,1′-biphenyl]-4-yl)-3-methyl-1H-imidazol-2(3H)-one], in experiment [1] (setting [3]), the GI50 lay within 0.3 to 30 nM. In experiment [2] (setting [4]), the 50% inhibitory concentration (IC50) lay within 0.01 to 1 nM.
Compound `COc1ncc(-c2cc(F)cc(-c3ccc(-n4ccn(C)c4=O)c(Cl)c3)c2O)cc1N1CCC2(CCN2C(C)C)C1` (centres unmarked) [Example 879] had a 50% growth inhibitory concentration (GI50) in experiment [1] (setting [5]) of 0.3 to 30 nM. In experiment [2] (setting [6]), the half-maximal inhibitory concentration (IC50) is 1 to 10 nM.
As for `Cn1ccn(-c2ccc(-c3cc(F)cc(-c4ccnc(-c5ccncc5)c4)c3O)cc2Cl)c1=O` [Example 481, 1-(3′-([2,4′-bipyridin]-4-yl)-3-chloro-5′-fluoro-2′-hydroxy-[1,1′-biphenyl]-4-yl)-3-methyl-1H-imidazol-2(3H)-one], in experiment [1] (setting [3]), the GI50 fell in the range of 300 to 3000 nM. Further, the IC50 in experiment [2] (setting [4]) fell in the range of 1 to 10 nM.
For the compound `O=c1occn1-c1ccc(-c2cc(F)cc(-c3ccnc(N4CCNCC4)c3)c2O)cc1Cl` [Example 505, 3-(3-chloro-5′-fluoro-2′-hydroxy-3′-(2-(piperazin-1-yl)pyridin-4-yl)-[1,1′-biphenyl]-4-yl)oxazol-2(3H)-one], the GI50 in experiment [1] (setting [3]) was in the range of 30 to 300 nM. The IC50 in experiment [2] (setting [4]) fell in the range of 1 to 10 nM.
In the case of `Cn1ccn(-c2ccc(-c3cc(F)cc(-c4ccnc(N5CCC(O)(C(F)(F)F)C5)c4)c3O)cc2Cl)c1=O` (centres unmarked) [Example 784, 1-(3-chloro-5′-fluoro-2′-hydroxy-3′-(2-(3-hydroxy-3-(trifluoromethyl)pyrrolidin-1-yl)pyridin-4-yl)-[1,1′-biphenyl]-4-yl)-3-methyl-1H-imidazol-2(3H)-one], the GI50 in experiment [1] (setting [3]) fell in the range of 30 to 300 nM. Also, the IC50 in experiment [2] (setting [4]) was in the range of 1 to 10 nM.
As to `CN1CCN(c2ccc(-c3cc(F)cc(-c4cc(N5CC[C@H](N)C5)c(=O)n(C)c4)c3O)cc2Cl)C1=O` [Example 394, (S)-3-(3-aminopyrrolidin-1-yl)-5-(3′-chloro-5-fluoro-2-hydroxy-4′-(3-methyl-2-oxoimidazolidin-1-yl)-[1,1′-biphenyl]-3-yl)-1-methylpyridin-2(1H)-one], in experiment [1] (setting [3]), the GI50 lay in the range of 30 to 300 nM. Besides, in experiment [2] (setting [4]), the half-inhibitory concentration (IC50) fell in the range of 1 to 10 nM.
The compound `Cn1ccn(-c2ccc(-c3cc(F)cc(-c4ccnc(N5CC(F)(F)[C@@](C)(O)C5)c4)c3O)cc2Cl)c1=O` [Example 881] yielded a GI50 in experiment [1] (SKM-1 antiproliferation assay) of 30 to 300 nM. In experiment [2] (setting [6]), the IC50 was 0.01 to 1 nM.
In experiment [1] (setting [3]), `O=C1CCCN1c1c(Cl)cc(-c2cc(F)cc(-c3ccnc(N4CCNCC4)c3)c2O)cc1Cl` [Example 402, 1-(3,5-dichloro-5′-fluoro-2′-hydroxy-3′-(2-(piperazin-1-yl)pyridin-4-yl)-[1,1′-biphenyl]-4-yl)pyrrolidin-2-one] returned a GI50 of 300 to 3000 nM. Further, in experiment [2] (setting [4]), the IC50 is > 100 nM.
Turning to `Cn1ccn(-c2ccc(-c3cc(F)cc(-c4ccnc(N5CCN(CC(C)(C)C)CC5)c4)c3O)cc2Cl)c1=O` [Example 651, 1-(3-chloro-5′-fluoro-2′-hydroxy-3′-(2-(4-neopentylpiperazin-1-yl)pyridin-4-yl)-[1,1′-biphenyl]-4-yl)-3-methyl-1H-imidazol-2(3H)-one], the GI50 in experiment [1] (setting [3]) lay in the range of 30 to 300 nM. Also, the IC50 in experiment [2] (setting [4]) is 0.01 to 1 nM.
